PubChem BioAssay (NCI)
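Cultured in 96-well plates, cells were exposed to test compound for 48 hours across five concentrations. The concentration for full growth arrest is given as TGI.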

Legend:
Test in all cases: NCI-60 cell line screen, 48 h
[1] = tested on: MDA-MB-435
[2] = tested on: SK-MEL-2 melanoma
[3] = tested on: RPMI-8226 leukemia
[4] = tested on: UACC-257 melanoma
[5] = tested on: MDA-N
[6] = tested on: IGROV1 ovarian
[7] = tested on: HL-60(TB) leukemia
[8] = tested on: MCF7 breast
[9] = tested on: HOP-62 NSCLC
[10] = tested on: SN12C renal
[11] = tested on: UO-31 renal
[12] = tested on: OVCAR-5 ovarian
[13] = tested on: PC-3 prostate
[14] = tested on: 786-0 renal
[15] = tested on: RXF 393 renal
[16] = tested on: SF-268 CNS
[17] = tested on: A549 NSCLC
[18] = tested on: SF-295 CNS
[19] = tested on: SW-620 colon
[20] = tested on: ACHN renal
[21] = tested on: SK-OV-3 ovarian
[22] = tested on: HS 578T breast
[23] = tested on: COLO 205 colon
[24] = tested on: HOP-92 NSCLC
[25] = tested on: HCT-116 colon
[26] = tested on: U251 CNS
[27] = tested on: K-562 leukemia
[28] = tested on: HCT-15 colon
[29] = tested on: OVCAR-8 ovarian
[30] = tested on: NCI-H522 lung
[31] = tested on: NCI-H460 lung
[32] = tested on: MALME-3M melanoma
[33] = tested on: M14 melanoma
[34] = tested on: TK-10 renal
[35] = tested on: KM12 colon
[36] = tested on: MOLT-4 leukemia
[37] = tested on: MDA-MB-231 breast
[38] = tested on: NCI-H226 lung
[39] = tested on: OVCAR-4 ovarian
[40] = tested on: CCRF-CEM leukemia
[41] = tested on: EKVX NSCLC
[42] = tested on: A498 renal
[43] = tested on: SF-539 CNS
[44] = tested on: OVCAR-3 ovarian
[45] = tested on: SK-MEL-28 melanoma
[46] = tested on: HCC-2998 colon
[47] = tested on: SK-MEL-5 melanoma
[48] = tested on: DU-145 prostate
[49] = tested on: CAKI-1 renal
[50] = tested on: SNB-19 CNS
[51] = tested on: BT-549 breast
[52] = tested on: HT29 colon
[53] = tested on: T-47D breast
[54] = tested on: NCI/ADR-RES ovarian
[55] = tested on: NCI-H23 lung
[56] = tested on: LOX IMVI melanoma
[57] = tested on: UACC-62 melanoma
[58] = tested on: SR leukemia

`COc1ccc(CCN2CCN(CCc3ccc(OC)cc3)CC2)cc1` was tested, and the TGI [1] was greater than 100 µM, the TGI [2] was greater than 100 µM and the TGI [3] was greater than 100 µM. The TGI [4] was greater than 100 µM, the TGI [5] was greater than 100 µM and the TGI [6] was greater than 100 µM. It also gave a TGI [7] greater than 100 µM, a TGI [8] greater than 100 µM and a TGI [9] greater than 100 µM. For the same molecule, the TGI [10] was greater than 100 µM, the TGI [11] was greater than 100 µM and the TGI [12] was greater than 100 µM. The TGI [13] was greater than 100 µM, the TGI [14] was greater than 100 µM and the TGI [15] was 95.1 µM. The TGI [16] was greater than 100 µM, the TGI [17] was greater than 100 µM and the TGI [18] was greater than 100 µM. For the same molecule, the TGI [19] was greater than 100 µM, the TGI [20] was greater than 100 µM and the TGI [21] was greater than 100 µM. The TGI [22] was greater than 100 µM, the TGI [23] was greater than 100 µM and the TGI [24] was greater than 100 µM. For the same molecule, the TGI [25] was greater than 100 µM, the TGI [26] was greater than 100 µM and the TGI [27] was greater than 100 µM. For the same molecule, the TGI [28] was greater than 100 µM, the TGI [29] was greater than 100 µM and the TGI [30] was greater than 100 µM. For the same molecule, the TGI [31] was greater than 100 µM, the TGI [32] was greater than 100 µM and the TGI [33] was greater than 100 µM. It also gave a TGI [34] greater than 100 µM, a TGI [35] greater than 100 µM and a TGI [36] greater than 100 µM. It also gave a TGI [37] greater than 100 µM, a TGI [38] greater than 100 µM and a TGI [39] greater than 100 µM. The TGI [40] was greater than 100 µM, the TGI [41] was greater than 100 µM and the TGI [42] was greater than 100 µM. It also gave a TGI [43] greater than 100 µM, a TGI [44] greater than 100 µM and a TGI [45] greater than 100 µM. For the same molecule, the TGI [46] was greater than 100 µM, the TGI [47] was greater than 100 µM and the TGI [48] was greater than 100 µM. The TGI [49] was greater than 100 µM, the TGI [50] was greater than 100 µM and the TGI [51] was greater than 100 µM. It also gave a TGI [52] greater than 100 µM, a TGI [53] greater than 100 µM and a TGI [54] greater than 100 µM. For the same molecule, the TGI [55] was greater than 100 µM, the TGI [56] was greater than 100 µM and the TGI [57] was greater than 100 µM.

In the case of `Cc1[nH]n(C2=NCCN2)c(=O)c1Cc1ccccc1`, the TGI [1] was greater than 100 µM, the TGI [2] was greater than 100 µM and the TGI [3] was greater than 100 µM. The TGI [4] was greater than 100 µM, the TGI [5] was greater than 100 µM and the TGI [6] was greater than 100 µM. It also gave a TGI [7] greater than 100 µM, a TGI [8] greater than 100 µM and a TGI [9] greater than 100 µM. It also gave a TGI [11] greater than 100 µM, a TGI [12] greater than 100 µM and a TGI [13] greater than 100 µM. It also gave a TGI [14] greater than 100 µM, a TGI [15] greater than 100 µM and a TGI [16] greater than 100 µM. For the same molecule, the TGI [17] was greater than 100 µM, the TGI [18] was greater than 100 µM and the TGI [19] was greater than 100 µM. The TGI [20] was greater than 100 µM, the TGI [21] was greater than 100 µM and the TGI [22] was greater than 100 µM. For the same molecule, the TGI [23] was greater than 100 µM, the TGI [24] was greater than 100 µM and the TGI [25] was greater than 100 µM. The TGI [26] was greater than 100 µM, the TGI [27] was greater than 100 µM and the TGI [28] was greater than 100 µM. It also gave a TGI [29] greater than 100 µM, a TGI [30] greater than 100 µM and a TGI [31] greater than 100 µM. For the same molecule, the TGI [32] was greater than 100 µM, the TGI [33] was greater than 100 µM and the TGI [34] was greater than 100 µM. It also gave a TGI [35] greater than 100 µM, a TGI [36] greater than 100 µM and a TGI [37] greater than 100 µM. It also gave a TGI [38] greater than 100 µM, a TGI [39] greater than 100 µM and a TGI [40] greater than 100 µM. It also gave a TGI [41] greater than 100 µM, a TGI [42] greater than 100 µM and a TGI [43] greater than 100 µM. The TGI [44] was greater than 100 µM, the TGI [47] was greater than 100 µM and the TGI [49] was greater than 100 µM. For the same molecule, the TGI [50] was greater than 100 µM, the TGI [51] was greater than 100 µM and the TGI [52] was greater than 100 µM. The TGI [53] was greater than 100 µM, the TGI [54] was greater than 100 µM and the TGI [55] was greater than 100 µM. It also gave a TGI [58] greater than 100 µM, a TGI [56] greater than 100 µM and a TGI [57] greater than 100 µM.
